From patent US9029337B2, “Modulation of factor 7 expression” (Isis Pharmaceuticals, Inc., priority 2007, dated 2015)
Strand notation (5' to 3'): a small letter for the sugar, then the base; units joined by * are phosphorothioate-linked, units joined directly phosphodiester-linked; [ ] holds rarer units or linkages, { } end groups; capitals alone tell only the bases. e = 2'-O-(2-methoxyethyl) (MOE); [5mC] = 5-methylcytosine; d = 2'-deoxy (DNA)

Test system: human Factor 7 mRNA
Test: Dose-dependent antisense inhibition of human Factor 7 in HepB3 cells, lipofectin
Assay type: cell-based
Conditions: 3.125 nM, HepB3 cells, approx. 16 hours (Table 14)
Method in brief: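 HepB3 cells (4,000/well) lipofectin-transfected with antisense oligonucleotide at 3.125 or 6.25 up to 100 nM for ~16 h. Factor 7 mRNA measured by real-time RT-PCR with primer probe set RTS 2927, adjusted to RIBOGREEN total RNA; expressed as percent inhibition versus untreated control cells.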

In order of rising “percent inhibition of Factor 7 mRNA, relative to untreated control cells” value:
1. 422142 (antisense eG*eA*eG*eT*eT*d[5mC]*dT*dG*d[5mC]*dA*dG*dG*dA*dG*d[5mC]*eG*eG*e[5mC]*e[5mC]*eT) [compound 422142]  16%
2. 422140 (antisense eG*eT*eT*e[5mC]*eT*dG*d[5mC]*dA*dG*dG*dA*dG*d[5mC]*dG*dG*e[5mC]*e[5mC]*eT*eA*eA) [compound 422140]  18%

Same assay, conditions: 12.5 nM, HepB3 cells, approx. 16 hours (Table 14)

In order of rising “percent inhibition of Factor 7 mRNA, relative to untreated control cells” value:
1. 422140 (antisense eG*eT*eT*e[5mC]*eT*dG*d[5mC]*dA*dG*dG*dA*dG*d[5mC]*dG*dG*e[5mC]*e[5mC]*eT*eA*eA) [compound 422140]  49%
2. 422142 (antisense eG*eA*eG*eT*eT*d[5mC]*dT*dG*d[5mC]*dA*dG*dG*dA*dG*d[5mC]*eG*eG*e[5mC]*e[5mC]*eT) [compound 422142]  51%

Same assay, conditions: 25 nM, HepB3 cells, approx. 16 hours (Table 14)

In order of rising “percent inhibition of Factor 7 mRNA, relative to untreated control cells” value:
1. 422140 (antisense eG*eT*eT*e[5mC]*eT*dG*d[5mC]*dA*dG*dG*dA*dG*d[5mC]*dG*dG*e[5mC]*e[5mC]*eT*eA*eA) [compound 422140]  64%
2. 422142 (antisense eG*eA*eG*eT*eT*d[5mC]*dT*dG*d[5mC]*dA*dG*dG*dA*dG*d[5mC]*eG*eG*e[5mC]*e[5mC]*eT) [compound 422142]  66%

Same assay, conditions: 50 nM, HepB3 cells, approx. 16 hours (Table 14)

In order of rising “percent inhibition of Factor 7 mRNA, relative to untreated control cells” value:
1. 422142 (antisense eG*eA*eG*eT*eT*d[5mC]*dT*dG*d[5mC]*dA*dG*dG*dA*dG*d[5mC]*eG*eG*e[5mC]*e[5mC]*eT) [compound 422142]  72%
2. 422140 (antisense eG*eT*eT*e[5mC]*eT*dG*d[5mC]*dA*dG*dG*dA*dG*d[5mC]*dG*dG*e[5mC]*e[5mC]*eT*eA*eA) [compound 422140]  74%

Same assay, conditions: 100 nM, HepB3 cells, approx. 16 hours (Table 14)

In order of rising “percent inhibition of Factor 7 mRNA, relative to untreated control cells” value:
1. 422142 (antisense eG*eA*eG*eT*eT*d[5mC]*dT*dG*d[5mC]*dA*dG*dG*dA*dG*d[5mC]*eG*eG*e[5mC]*e[5mC]*eT) [compound 422142]  68%
2. 422140 (antisense eG*eT*eT*e[5mC]*eT*dG*d[5mC]*dA*dG*dG*dA*dG*d[5mC]*dG*dG*e[5mC]*e[5mC]*eT*eA*eA) [compound 422140]  74%

Same assay, conditions: HepB3 cells, approx. 16 hours (Table 14)

In order of rising “percent inhibition of Factor 7 mRNA, relative to untreated control cells” value:
1. 422142 (antisense eG*eA*eG*eT*eT*d[5mC]*dT*dG*d[5mC]*dA*dG*dG*dA*dG*d[5mC]*eG*eG*e[5mC]*e[5mC]*eT) [compound 422142]  34%
2. 422140 (antisense eG*eT*eT*e[5mC]*eT*dG*d[5mC]*dA*dG*dG*dA*dG*d[5mC]*dG*dG*e[5mC]*e[5mC]*eT*eA*eA) [compound 422140]  35%

Test system: human Factor 7 mRNA
Test: Antisense inhibition of human Factor 7 mRNA in HepB3 cells, 50 nM antisense oligonucleotide, lipofectin
Assay type: cell-based
Conditions: gapmers targeted to nucleobases 4868 to 4899 of SEQ ID NO: 1, Table 8
Method in brief: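 Readout is percent reduction of Factor 7 message compared with untreated cells, after correction for total RNA content quantified by RIBOGREEN®. Cultures were seeded at 4,000 cells per well and treated for about 24 hours before RNA extraction.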

In order of rising “% Inhibition of human Factor 7 mRNA levels” value:
1. 422142 (antisense eG*eA*eG*eT*eT*d[5mC]*dT*dG*d[5mC]*dA*dG*dG*dA*dG*d[5mC]*eG*eG*e[5mC]*e[5mC]*eT) [compound 422142]  73%
2. 422140 (antisense eG*eT*eT*e[5mC]*eT*dG*d[5mC]*dA*dG*dG*dA*dG*d[5mC]*dG*dG*e[5mC]*e[5mC]*eT*eA*eA) [compound 422140]  74%

Test system: human Factor 7 mRNA
Test: Dose-dependent antisense inhibition of human Factor 7 in HepB3 cells, electroporation
Assay type: cell-based
Conditions: 3.125 μM, approx. 16 hours (Table 15, Example 7)
Procedure: (§1) The gapmers were also transfected via electroporation and their dose-dependent inhibition of human Factor 7 mRNA was measured. Cells were plated at a density of 20,000 cells per well and transfected via electroporation with 3.125 μM, 6.25 μM, 12.5 μM, 25 μM, 50 μM, and 100 μM concentrations of antisense oligonucleotide, as specified in Table 15. After a treatment period of approximately 16 hours, RNA was isolated from the cells and Factor 7 mRNA levels were measured by quantitative real-time PCR. Human Factor 7 primer probe set RTS 2927 was used to measure mRNA levels. Factor 7 mRNA levels were adjusted according to total RNA content, as measured by RIBOGREEN®. Results are presented as percent inhibition of Factor 7, relative to untreated control cells.
as §1, with “Cells were” for “The gapmers were also transfected via electroporation and their dose-dependent inhibition of human Factor 7 mRNA was measured. Cells were”, “in […]. After a” for “in Table 15. After a”, “cells and human Factor 7” for “cells and Factor 7”

In order of rising “percent inhibition of Factor 7 mRNA, relative to untreated control cells” value:
1. 422142 (antisense eG*eA*eG*eT*eT*d[5mC]*dT*dG*d[5mC]*dA*dG*dG*dA*dG*d[5mC]*eG*eG*e[5mC]*e[5mC]*eT) [compound 422142]  26%
2. 422140 (antisense eG*eT*eT*e[5mC]*eT*dG*d[5mC]*dA*dG*dG*dA*dG*d[5mC]*dG*dG*e[5mC]*e[5mC]*eT*eA*eA) [compound 422140]  29%

Same assay, conditions: 3.125 μM, approx. 16 hours (Table 16, Example 8 confirmation)

“422142 (antisense eG*eA*eG*eT*eT*d[5mC]*dT*dG*d[5mC]*dA*dG*dG*dA*dG*d[5mC]*eG*eG*e[5mC]*e[5mC]*eT) [compound 422142]” was tested, and the “percent inhibition of Factor 7 mRNA, relative to untreated control cells” value was 34%.

Same assay, conditions: 6.25 μM, approx. 16 hours (Table 15, Example 7)

In order of rising “percent inhibition of Factor 7 mRNA, relative to untreated control cells” value:
1. 422140 (antisense eG*eT*eT*e[5mC]*eT*dG*d[5mC]*dA*dG*dG*dA*dG*d[5mC]*dG*dG*e[5mC]*e[5mC]*eT*eA*eA) [compound 422140]  34%
2. 422142 (antisense eG*eA*eG*eT*eT*d[5mC]*dT*dG*d[5mC]*dA*dG*dG*dA*dG*d[5mC]*eG*eG*e[5mC]*e[5mC]*eT) [compound 422142]  47%

Same assay, conditions: 6.25 μM, approx. 16 hours (Table 16, Example 8 confirmation)

In the case of “422142 (antisense eG*eA*eG*eT*eT*d[5mC]*dT*dG*d[5mC]*dA*dG*dG*dA*dG*d[5mC]*eG*eG*e[5mC]*e[5mC]*eT) [compound 422142]”, the “percent inhibition of Factor 7 mRNA, relative to untreated control cells” value is reported as 47%.

Same assay, conditions: 12.5 μM, approx. 16 hours (Table 15, Example 7)

In order of falling “percent inhibition of Factor 7 mRNA, relative to untreated control cells” value:
1. 422142 (antisense eG*eA*eG*eT*eT*d[5mC]*dT*dG*d[5mC]*dA*dG*dG*dA*dG*d[5mC]*eG*eG*e[5mC]*e[5mC]*eT) [compound 422142]  63%
2. 422140 (antisense eG*eT*eT*e[5mC]*eT*dG*d[5mC]*dA*dG*dG*dA*dG*d[5mC]*dG*dG*e[5mC]*e[5mC]*eT*eA*eA) [compound 422140]  51%

Same assay, conditions: 12.5 μM, approx. 16 hours (Table 16, Example 8 confirmation)

With “422142 (antisense eG*eA*eG*eT*eT*d[5mC]*dT*dG*d[5mC]*dA*dG*dG*dA*dG*d[5mC]*eG*eG*e[5mC]*e[5mC]*eT) [compound 422142]” the “percent inhibition of Factor 7 mRNA, relative to untreated control cells” value was 62%.

Same assay, conditions: 25 μM, approx. 16 hours (Table 15, Example 7)

In order of falling “percent inhibition of Factor 7 mRNA, relative to untreated control cells” value:
1. 422142 (antisense eG*eA*eG*eT*eT*d[5mC]*dT*dG*d[5mC]*dA*dG*dG*dA*dG*d[5mC]*eG*eG*e[5mC]*e[5mC]*eT) [compound 422142]  67%
2. 422140 (antisense eG*eT*eT*e[5mC]*eT*dG*d[5mC]*dA*dG*dG*dA*dG*d[5mC]*dG*dG*e[5mC]*e[5mC]*eT*eA*eA) [compound 422140]  64%

Same assay, conditions: 25 μM, approx. 16 hours (Table 16, Example 8 confirmation)

For “422142 (antisense eG*eA*eG*eT*eT*d[5mC]*dT*dG*d[5mC]*dA*dG*dG*dA*dG*d[5mC]*eG*eG*e[5mC]*e[5mC]*eT) [compound 422142]”, the “percent inhibition of Factor 7 mRNA, relative to untreated control cells” value was 67%.

Same assay, conditions: 50 μM, approx. 16 hours (Table 15, Example 7)

In order of falling “percent inhibition of Factor 7 mRNA, relative to untreated control cells” value:
1. 422142 (antisense eG*eA*eG*eT*eT*d[5mC]*dT*dG*d[5mC]*dA*dG*dG*dA*dG*d[5mC]*eG*eG*e[5mC]*e[5mC]*eT) [compound 422142]  77%
2. 422140 (antisense eG*eT*eT*e[5mC]*eT*dG*d[5mC]*dA*dG*dG*dA*dG*d[5mC]*dG*dG*e[5mC]*e[5mC]*eT*eA*eA) [compound 422140]  69%

Same assay, conditions: 50 μM, approx. 16 hours (Table 16, Example 8 confirmation)

In the case of “422142 (antisense eG*eA*eG*eT*eT*d[5mC]*dT*dG*d[5mC]*dA*dG*dG*dA*dG*d[5mC]*eG*eG*e[5mC]*e[5mC]*eT) [compound 422142]”, the “percent inhibition of Factor 7 mRNA, relative to untreated control cells” value is reported as 65%.

Same assay, conditions: 100 μM, approx. 16 hours (Table 15, Example 7)

In order of rising “percent inhibition of Factor 7 mRNA, relative to untreated control cells” value:
1. 422140 (antisense eG*eT*eT*e[5mC]*eT*dG*d[5mC]*dA*dG*dG*dA*dG*d[5mC]*dG*dG*e[5mC]*e[5mC]*eT*eA*eA) [compound 422140]  77%
2. 422142 (antisense eG*eA*eG*eT*eT*d[5mC]*dT*dG*d[5mC]*dA*dG*dG*dA*dG*d[5mC]*eG*eG*e[5mC]*e[5mC]*eT) [compound 422142]  78%

Same assay, conditions: 100 μM, approx. 16 hours (Table 16, Example 8 confirmation)

With “422142 (antisense eG*eA*eG*eT*eT*d[5mC]*dT*dG*d[5mC]*dA*dG*dG*dA*dG*d[5mC]*eG*eG*e[5mC]*e[5mC]*eT) [compound 422142]” the “percent inhibition of Factor 7 mRNA, relative to untreated control cells” value was 65%.
